Results: patent publication US6784153B1, “Methods of homing molecules to lung using membrane dipeptidase” (The Burnham Institute, priority 1998, dated 2004)
Entries after “also recorded” stand apart in the source; their conditions may differ.

Columns and labels:
lung primary cells = experiment: phage binding assay on lung primary cells; design: species or system mice
Method: Phage binding to primary cells was performed as follows. Briefly, Balb/c mice (Harlan Sprague Dawley) were anesthetized with 0.017 ml/g of Avertin as described in Gardner et al., Lab. […] Under deep anesthesia, mice were perfused through the heart with 10 ml Dulbecco's modified Eagle's medium (DMEM; Irvine Scientific; Santa Ana, Calif.). The lungs, kidneys and brain were then collected, minced, placed in 2 ml of DMEM containing 0.5% BSA (Intergen; Purchase, N.Y.) and 0.5 μg/ml collagenase V (SIGMA) and incubated at 37° C. for 25 minutes. Following collagenase treatment, the tissue was forced through a […] pore cell strainer (Becton Dickinson; Franklin Lake, N.J.). The filtered cells were washed once with 10 ml DMEM supplemented with 10% serum.
For the binding reaction, 10^9 transducing units (TU) of phage were incubated with 5×10^6 cells in 1 ml DMEM supplemented with 10% serum. The binding was performed at 4° C. for 2 hours with gentle agitation. After the binding reaction, the cells were washed four times with 1 ml of DMEM supplemented with 10% serum at room temperature for 5 to 10 minutes each time. The cells were centrifuged, and the cell pellet resuspended in 100 μl of DMEM and transferred to a new tube. […] The bacteria were then diluted in 10 ml of LB culture media supplemented with 0.2 μg/ml tetracycline, and incubated for another 30 minutes at room temperature. Serial dilutions of the bacterial culture were plated on LB plates containing 40 μg/ml tetracycline. Plates were incubated at 37° C. overnight before the colonies were counted (transducing units, TU).

primary brain cells = experiment: phage binding assay on primary brain cells; design: species or system mice; settings: in vitro
Method: Phage binding to primary cells was performed as follows. Briefly, Balb/c mice (Harlan Sprague Dawley) were anesthetized with 0.017 ml/g of Avertin as described in Gardner et al., Lab. Animal Sci. 45:199-204 (1995), which is incorporated herein by reference. Under deep anesthesia, mice were perfused through the heart with 10 ml Dulbecco's modified Eagle's medium (DMEM; Irvine Scientific; Santa Ana, Calif.). The lungs, kidneys and brain were then collected, minced, placed in 2 ml of DMEM containing 0.5% BSA (Intergen; Purchase, N.Y.) and 0.5 μg/ml collagenase V (SIGMA) and incubated at 37° C. for 25 minutes. Following collagenase treatment, the tissue was forced through a […] pore cell strainer (Becton Dickinson; Franklin Lake, N.J.). The filtered cells were washed once with 10 ml DMEM supplemented with 10% serum. […] To ensure an equal input of the different phage to be tested, phage were titered several times using K91Kan bacteria (Smith and Scott, supra, 1993).
For the binding reaction, 10^9 transducing units (TU) of phage were incubated with 5×10^6 cells in 1 ml DMEM supplemented with 10% serum. The binding was performed at 4° C. for 2 hours with gentle agitation. […] Plates were incubated at 37° C. overnight before the colonies were counted (transducing units, TU).

[1] = molecular target: T1, 55 kDa lung vascular surface protein (Mus musculus, UniProt P31428); experiment: peptide affinity chromatography of in vivo biotinylated lung extract; format: binding; settings: elution with GFE-1 peptide
T1 construct: from tissue; host or cells: Balb/c mouse lung, in vivo biotinylated, octylglucoside extract
T1 sequence (P31428 17-384): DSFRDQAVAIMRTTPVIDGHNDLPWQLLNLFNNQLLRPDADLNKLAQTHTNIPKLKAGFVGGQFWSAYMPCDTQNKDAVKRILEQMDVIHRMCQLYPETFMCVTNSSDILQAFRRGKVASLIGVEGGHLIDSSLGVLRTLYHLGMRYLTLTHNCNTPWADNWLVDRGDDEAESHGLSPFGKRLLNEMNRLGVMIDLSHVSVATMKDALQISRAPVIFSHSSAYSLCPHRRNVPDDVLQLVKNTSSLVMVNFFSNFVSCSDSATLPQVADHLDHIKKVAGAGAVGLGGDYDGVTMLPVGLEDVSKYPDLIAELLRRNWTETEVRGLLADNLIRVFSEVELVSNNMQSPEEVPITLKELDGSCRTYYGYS
Method: In vivo biotinylation of endothelial cell surface proteins was performed as previously described in De La Fuente et al., Am. J. Physiol. […] Briefly, Balb/c mice were anesthetized with Avertin and perfused slowly through the heart for 10 to 15 minutes with approximately 15 ml of PBS containing 0.5 mg/ml of sulfo-NHS-LC-biotin (Pierce; Rockford, Ill.). Well perfused lungs or control tissues such as brain were then collected and incubated on ice for 20 minutes. The tissues were then homogenized for preparation of extracts as described further below.
For preparation of extracts, mouse or rat lungs were first minced and then homogenized with a Brinkman homogenizer (Brinkman; Wesbury, N.Y.) in a minimal volume (2.5 ml/g of tissue) of cold PBS containing 100 mM N-octyl-β-D-glucopyranoside (Calbiochem; La Jolla, Calif.) with 1 mM phenylmethylsulfonyl fluoride (PMSF), 20 μg/ml aprotinin and 1 μg/ml leupeptin (PBS/octylglucoside). The homogenized tissue was incubated on ice for 2 hours, and then centrifuged at 12,000×g for 30 minutes to remove cell debris. The pooled supernatants were cleared of any debris prior to affinity chromatogaphy.
All steps were performed at 4° C. […] The matrix contained approximately 2 mg/ml of peptide. […] The extract was applied to the column, and the flow-through re-applied over a period of 90 minutes. The column was then washed with 20 volumes of column buffer. […]

[2] = test system: C8161 human melanoma cells; settings: cells and peptide mixture cultured overnight; data not shown

For CGFECVRQCPERC, the “inhibition of GFE-1 phage binding to lung cells” value (lung primary cells; 150 μM peptide) was roughly 70%, the “phage bound by primary lung cells relative to insertless fd-tet phage” value (lung primary cells; 10^9 TU phage, 5×10^6 cells, 4° C., 2 hours) was “about 60 fold” and the “phage binding to primary brain cells” value (primary brain cells) was “no specific binding”. For the same sequence, the “binding of lung surface protein to peptide affinity column” value [1] was “a 55 kDa biotinylated protein was selectively eluted; also recorded: specifically binds to a 55 kDa lung vascular surface protein” and the “toxicity to the melanoma cells” value [2] was “Neither the GFE-1 (SEQ ID NO: 1) or CARAC (SEQ ID NO: 443) peptides exhibited toxicity”.
